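The compound was tested at five concentrations on cells cultured in 96-well plates, with a 48-hour exposure period. The concentration for full growth arrest is given as TGI.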
Tests used:
Assay in all cases: DTP human tumour cell line panel, 48 h
[1] = system: 786-0 renal
[2] = system: A498 renal
[3] = system: ACHN renal
[4] = system: BT-549 breast
[5] = system: CAKI-1 renal
[6] = system: CCRF-CEM leukemia
[7] = system: COLO 205 colon
[8] = system: DU-145 prostate
[9] = system: EKVX NSCLC
[10] = system: HCC-2998 colon
[11] = system: HCT-116 colon
[12] = system: HCT-15 colon
[13] = system: HL-60(TB) leukemia
[14] = system: HOP-62 NSCLC
[15] = system: HOP-92 NSCLC
[16] = system: HS 578T breast
[17] = system: HT29 colon
[18] = system: IGROV1 ovarian
[19] = system: K-562 leukemia
[20] = system: KM12 colon
[21] = system: M14 melanoma
[22] = system: MALME-3M melanoma
[23] = system: MCF7 breast
[24] = system: MDA-MB-231 breast
[25] = system: MDA-MB-435
[26] = system: MDA-N
[27] = system: MOLT-4 leukemia
[28] = system: NCI-H226 lung
[29] = system: NCI-H23 lung
[30] = system: NCI-H460 lung
[31] = system: NCI-H522 lung
[32] = system: NCI/ADR-RES ovarian
[33] = system: OVCAR-3 ovarian
[34] = system: OVCAR-4 ovarian
[35] = system: OVCAR-5 ovarian
[36] = system: OVCAR-8 ovarian
[37] = system: PC-3 prostate
[38] = system: RPMI-8226 leukemia
[39] = system: RXF 393 renal
[40] = system: SF-268 CNS
[41] = system: SF-295 CNS
[42] = system: SF-539 CNS
[43] = system: SK-MEL-28 melanoma
[44] = system: SK-MEL-5 melanoma
[45] = system: SK-OV-3 ovarian
[46] = system: SN12C renal
[47] = system: SNB-19 CNS
[48] = system: SNB-75 CNS
[49] = system: SR leukemia
[50] = system: SW-620 colon
[51] = system: T-47D breast
[52] = system: U251 CNS
[53] = system: UACC-257 melanoma
[54] = system: UACC-62 melanoma
[55] = system: UO-31 renal
[56] = system: A549 NSCLC
[57] = system: LOX IMVI melanoma
[58] = system: SK-MEL-2 melanoma
[59] = system: TK-10 renal
[60] = system: DLD-1 colon
[61] = system: DMS 114 small cell lung
[62] = system: HOP-18 NSCLC
[63] = system: KM20L2 colon
[64] = system: LXFL 529 NSCLC
[65] = system: M19-MEL melanoma
[66] = system: SNB-78 CNS

## COC1C(=O)CCC2(CO2)C1(O)C1(C)OC1CCC(C)C (centres undefined)
[1]
  TGI: > 100 µM
[2]
  TGI: > 100 µM
[3]
  TGI: > 100 µM
[4]
  TGI: > 100 µM
[5]
  TGI: > 100 µM
[6]
  TGI: > 100 µM
[7]
  TGI: > 100 µM
[8]
  TGI: > 100 µM
[9]
  TGI: > 100 µM
[10]
  TGI: > 100 µM
[11]
  TGI: > 100 µM
[12]
  TGI: > 100 µM
[13]
  TGI: > 100 µM
[14]
  TGI: > 100 µM
[15]
  TGI: > 100 µM
[16]
  TGI: > 100 µM
[17]
  TGI: > 100 µM
[18]
  TGI: > 100 µM
[19]
  TGI: > 100 µM
[20]
  TGI: > 100 µM
[21]
  TGI: > 100 µM
[22]
  TGI: > 100 µM
[23]
  TGI: > 100 µM
[24]
  TGI: > 100 µM
[25]
  TGI: > 100 µM
[26]
  TGI: > 100 µM
[27]
  TGI: > 100 µM
[28]
  TGI: > 100 µM
[29]
  TGI: > 100 µM
[30]
  TGI: > 100 µM
[31]
  TGI: > 100 µM
[32]
  TGI: > 100 µM
[33]
  TGI: > 100 µM
[34]
  TGI: > 100 µM
[35]
  TGI: > 100 µM
[36]
  TGI: > 100 µM
[37]
  TGI: > 100 µM
[38]
  TGI: > 100 µM
[39]
  TGI: > 100 µM
[40]
  TGI: > 100 µM
[41]
  TGI: > 100 µM
[42]
  TGI: > 100 µM
[43]
  TGI: > 100 µM
[44]
  TGI: > 100 µM
[45]
  TGI: > 100 µM
[46]
  TGI: > 100 µM
[47]
  TGI: > 100 µM
[48]
  TGI: > 100 µM
[49]
  TGI: > 100 µM
[50]
  TGI: > 100 µM
[51]
  TGI: > 100 µM
[52]
  TGI: > 100 µM
[53]
  TGI: > 100 µM
[54]
  TGI: > 100 µM
[55]
  TGI: > 100 µM

## COc1ccc2c(c1)CC[C@@H]1[C@@H]2CC[C@]2(C)/C(=N/OCCN3CCCCC3)CC[C@@H]12
[1]
  TGI: 3.41 µM
[2]
  TGI: 23 µM
[56]
  TGI: 19.8 µM
[3]
  TGI: 21.3 µM
[4]
  TGI: 28.7 µM
[5]
  TGI: 4.17 µM
[6]
  TGI: 10.4 µM
[7]
  TGI: 3.18 µM
[8]
  TGI: 14.7 µM
[9]
  TGI: 21.5 µM
[10]
  TGI: 8.26 µM
[11]
  TGI: 5.67 µM
[12]
  TGI: 6.23 µM
[13]
  TGI: 6.35 µM
[14]
  TGI: 21 µM
[15]
  TGI: 14.4 µM
[16]
  TGI: 26.6 µM
[17]
  TGI: 3.67 µM
[18]
  TGI: 5.6 µM
[19]
  TGI: 9.62 µM
[20]
  TGI: 13.2 µM
[57]
  TGI: 3.8 µM
[21]
  TGI: 5.88 µM
[22]
  TGI: 4.89 µM
[23]
  TGI: 21.8 µM
[24]
  TGI: 23.6 µM
[25]
  TGI: 16.9 µM
[26]
  TGI: 5.9 µM
[27]
  TGI: 8.37 µM
[28]
  TGI: 18.7 µM
[29]
  TGI: 25 µM
[30]
  TGI: 5.68 µM
[31]
  TGI: 18.9 µM
[32]
  TGI: 24.2 µM
[33]
  TGI: 15 µM
[34]
  TGI: 27.2 µM
[35]
  TGI: 16.6 µM
[36]
  TGI: 23.1 µM
[37]
  TGI: 17.7 µM
[38]
  TGI: 6.35 µM
[39]
  TGI: 8.17 µM
[40]
  TGI: 24.7 µM
[41]
  TGI: 12.6 µM
[42]
  TGI: 7.64 µM
[58]
  TGI: 18.7 µM
[43]
  TGI: 5 µM
[44]
  TGI: 6.27 µM
[45]
  TGI: 23.7 µM
[46]
  TGI: 17 µM
[47]
  TGI: 21 µM
[48]
  TGI: 18.2 µM
[49]
  TGI: 6.29 µM
[50]
  TGI: 20.3 µM
[51]
  TGI: 19.2 µM
[59]
  TGI: 14.4 µM
[52]
  TGI: 24.3 µM
[53]
  TGI: 5.34 µM
[54]
  TGI: 3.68 µM
[55]
  TGI: 10.7 µM

## O=c1oc2c3ccc4ccccc4c3n(Cc3nc4ccccc4[nH]3)c2c2ccccc12
[1]
  TGI: > 47.9 µM
[2]
  TGI: > 100 µM
[56]
  TGI: > 100 µM
[3]
  TGI: > 100 µM
[5]
  TGI: > 100 µM
[6]
  TGI: > 100 µM
[7]
  TGI: > 100 µM
[60]
  TGI: > 100 µM
[61]
  TGI: > 100 µM
[9]
  TGI: > 31.6 µM
[10]
  TGI: > 100 µM
[11]
  TGI: > 100 µM
[12]
  TGI: > 100 µM
[13]
  TGI: 20 µM
[62]
  TGI: > 100 µM
[14]
  TGI: 75.3 µM
[15]
  TGI: > 100 µM
[17]
  TGI: > 63.4 µM
[18]
  TGI: > 100 µM
[19]
  TGI: > 100 µM
[20]
  TGI: > 100 µM
[63]
  TGI: > 100 µM
[57]
  TGI: > 100 µM
[64]
  TGI: > 100 µM
[21]
  TGI: > 100 µM
[65]
  TGI: > 100 µM
[22]
  TGI: > 100 µM
[27]
  TGI: > 100 µM
[28]
  TGI: > 100 µM
[29]
  TGI: > 100 µM
[30]
  TGI: > 100 µM
[31]
  TGI: > 100 µM
[33]
  TGI: > 72.8 µM
[34]
  TGI: > 100 µM
[35]
  TGI: > 100 µM
[36]
  TGI: > 100 µM
[38]
  TGI: > 100 µM
[39]
  TGI: > 100 µM
[40]
  TGI: > 100 µM
[41]
  TGI: > 100 µM
[42]
  TGI: > 26.2 µM
[58]
  TGI: > 100 µM
[43]
  TGI: > 100 µM
[45]
  TGI: > 100 µM
[46]
  TGI: > 100 µM
[47]
  TGI: > 100 µM
[48]
  TGI: > 87.7 µM
[66]
  TGI: > 100 µM
[49]
  TGI: > 100 µM
[50]
  TGI: > 100 µM
[59]
  TGI: > 100 µM
[52]
  TGI: > 100 µM
[53]
  TGI: > 90.6 µM
[54]
  TGI: > 100 µM
[55]
  TGI: > 100 µM

Reference: PubChem BioAssay (NCI)
